Results reported in patent US10114013B2, “Method for detection of coenzyme Q10” (Berg LLC, priority 2012, dated 2018).
Values joined by “and” are separate entries in the source; they are usually repeats but may differ in a detail not shown here. Equal values may be shown once.

Legend:
[1] = test system: PaCa2 cells; experiment: CoQ10 level in PaCa2 cells after CoQ10 treatment; extraction with methanol alone, LC/MS/MS detection; assay type: in vitro ADME, human; conditions: 100 μM CoQ10 in isopropanol, replicates 1-3
Protocol: (§1) To further validate the utility of the spectrophotometric method for the quantitative assessment of CoQ10 in biological samples, the experiment described above was repeated using HASMC, HepG2, and PaCa2 cell lines. Further, a second set of cell samples were prepared using each of the three cell types for analysis to determine CoQ10 levels using LC/MS/MS methods routinely used in the art. Briefly, cells were plated and treated with CoQ10 in isopropanol or the CoQ10 proprietary delivery formulation as set forth above, and harvested at 3, 6, or 24 hours after plating. Cell pellets were either extracted using the method set forth above, resuspending the cells in Buffers A and B, and extracting the CoQ10 with Buffer C, or the cell pellets were sent to a diagnostic laboratory (IriSys Research & Development Inc) for quantitative assessment of CoQ10 using extraction with methanol alone followed by LC/MS/MS detection.

[2] = test system: PaCa2 cells; experiment: CoQ10 level in PaCa2 cells after CoQ10 treatment; Buffer A/B/C extraction, UV spectrophotometry at 275 nm; assay type: in vitro ADME, human; conditions: 100 μM CoQ10 in isopropanol, OD275 detection, replicates 1-3
From the text: (§2) The assay for quantitation of CoQ10 was used to determine the CoQ10 levels in various cells lines after CoQ10 treatment for various times. The cell lines used in the studies were the normal human aortic smooth muscle cells (HASMC), the hepatic cancer cell line HepG2, and the human pancreatic carcinoma cell line PaCa2. All cells lines are commercially available and were maintained according to instruction from the manufacturer/supplier of the cell lines.
In the experimental trials, about 1×10^6 HASMC, HepG2, or PaCa2 cells were plated into each well of a 6 well plate. […] Immediately after trypsinization, the cells were counted to determine the total number of viable cells in the sample. […]
The vials were incubated at 65° C. for 2 minutes in a water bath, with gentle mixing at about half way through the incubation. […] The solution was cooled to room temperature and a 75 μL aliquot of the upper phase was placed in a quartz cuvette and analyzed by UV spectrophotometry at a wavelength of 275 nm. […]
For quantitative assessment of CoQ10 in the biological samples, a standard curve was generated essentially as set forth above (Example 2). […] Each of the samples from the serial dilution was measured at a wavelength of 275 nm in a UV spectrometer and plotted on a graph.
A power series was used to fit the standard curve from the standard and an equation was determined. […]

[3] = test system: HepG2 cells; experiment: CoQ10 level in HepG2 cells after CoQ10 treatment; extraction with methanol alone, LC/MS/MS detection; assay type: in vitro ADME; conditions: 100 μM CoQ10 in isopropanol, replicates 1-3
Protocol: as §1

[4] = test system: HepG2 cells; experiment: CoQ10 level in HepG2 cells after CoQ10 treatment; Buffer A/B/C extraction, UV spectrophotometry at 275 nm; assay type: in vitro ADME; conditions: for average level of CoQ10 in cells: Hep2G cells; for CoQ10 / Conc (pM/cell): HepG2 cells, OD275 detection, replicates 1-3
Protocol: as §2
200 μl of various concentrations of CoQ10 in Buffer A, or Buffer A alone, were aliquoted into glass vials and 10 μl of Buffer B was added to each vial. Cells treated with various concentrations of CoQ10 were collected at predetermined time points and washed. Cell pellet samples (e.g., about 10^5-10^7 cells) were combined with 200 μl of Buffer A and 10 μl of Buffer B, and the cell pellets were resuspended in the buffer mixture. The sample mixture turned opaque upon mixing Buffers A and B with cells. The mixtures were transferred into glass vials.
The glass vials from step 2 were warmed to 65° C. for 1 minute. The samples turned clear upon heating, and again became opaque upon cooling to room temperature.
A 200 μl aliquot of Buffer C was added to each vial. The vials were again warmed to 65° C. The solution in the vials spontaneously partitioned into two phases, with the second extraction buffer layer (upper layer) containing substantially all of the CoQ10 material.
A 50 μl sample of the upper extraction layer was removed and analyzed on a UV spectrometer at 275 nm. The amount of CoQ10 in each sample was determined by comparison to a standard curve.
In the experimental trials, about 1×10^6 HASMC, HepG2, or PaCa2 cells were plated into each well of a 6 well plate. At the time of plating, the cells were treated with defined concentrations of CoQ10, in triplicate, in isopropanol or a proprietary CoQ10 delivery formulation for 3, 6, or 24 hours. After the defined incubation time, the cells were washed with cold TPBS (PBS with 100 mM Tris, pH 7.4), harvested by trypsinization, washed (2×) with 1 ml of TPBS, and pelleted by centrifugation at 1,500 RPM. Immediately after trypsinization, the cells were counted to determine the total number of viable cells in the sample.
Cell pellets were resuspended in 200 μL of Buffer A (first extraction buffer) and 10 μL of Buffer B (surfactant/detergent). Upon addition of Buffer B, the sample became opaque and a precipitate formed. The resuspended cells were transferred to a borosilicate vial. For control samples not containing cells, the CoQ10 containing solution was added to a glass vial and hexane was added to bring the volume to 200 μl, and 10 μl of Buffer B was then added.
The vials were incubated at 65° C. for 2 minutes in a water bath, with gentle mixing at about half way through the incubation. The sample changed from cloudy to clear during the incubation. The sample was removed from the water bath and 200 μL of Buffer C (second extraction buffer) was added to the vial. The sample partitioned into two phases, polar and non-polar. The top, non-polar, layer was clear, while a white precipitate formed the bottom of the vial. The sample was again heated at 65° C. for 1 minute with gentle mixing about half way through the incubation. The solution was cooled to room temperature and a 75 μL aliquot of the upper phase was placed in a quartz cuvette and analyzed by UV spectrophotometry at a wavelength of 275 nm. The absorption was documented.
For quantitative assessment of CoQ10 in the biological samples, a standard curve was generated essentially as set forth above (Example 2). For each independent determination of CoQ10, the standard curve was generated by making a 50 μM CoQ10 stock solution in hexane and serially diluting of the stock material. Each of the samples from the serial dilution was measured at a wavelength of 275 nm in a UV spectrometer and plotted on a graph. […]

CoQ10 [1]: 0.371 µM and 1.917 µM and 1.186 µM | CoQ10 [2]: 28.46 µM and 12.5 µM and 4.05 µM | CoQ10 [3]: 2.061 µM and 1.223 µM and 1.599 µM | Conc (pM/cell) [3]: 0.34 pM/cell and 0.24 pM/cell (2×) | average level of CoQ10 in cells ([4]; 50 μM in propanol, 3 hours): 14.40 pM/cell | average level of CoQ10 in cells ([4]; 50 μM in propanol, 6 hours): 27.07 pM/cell | average level of CoQ10 in cells ([4]; 50 μM in propanol, 24 hours): 37.04 pM/cell | average level of CoQ10 in cells ([4]; 100 μM in propanol, 3 hours): 25.20 pM/cell | average level of CoQ10 in cells ([4]; 100 μM in propanol, 6 hours): 34.74 pM/cell | average level of CoQ10 in cells ([4]; 100 μM in propanol, 24 hours): 45.43 pM/cell | CoQ10 ([4]; 50 μM CoQ10 in isopropanol): 39.76 µM and 41.84 µM and 51.45 µM | CoQ10 ([4]; 100 μM CoQ10 in isopropanol): 36.08 µM and 49.71 µM and 50.51 µM
SMILES: COC1=C(OC)C(=O)C(C/C=C(\C)CC/C=C(\C)CC/C=C(\C)CC/C=C(\C)CC/C=C(\C)CC/C=C(\C)CC/C=C(\C)CC/C=C(\C)CC/C=C(\C)CCC=C(C)C)=C(C)C1=O [CoQ10, Coenzyme Q10]
Conc (pM/cell) [1]: 0.31 pM/cell and 0.17 pM/cell and 0.12 pM/cell | Conc (pM/cell) [2]: 1.56 pM/cell and 9.09 pM/cell and 3.2 pM/cell | Conc (pM/cell) ([4]; 50 μM CoQ10 in isopropanol): 29.6 pM/cell and 30.7 pM/cell and 51.9 pM/cell | Conc (pM/cell) ([4]; 100 μM CoQ10 in isopropanol): 70.7 pM/cell and 121.2 pM/cell and 101 pM/cell
